From paper PMC7691559 (Journal of Pesticide Science, 2020)
Numbering of substitutions follows the chain as printed.

How the values were obtained:
Test in all cases: spectrophotometric GST assay, nonlinear regression
Format in all cases: biochemical
Details in all cases: read-out: CDNB / Km; 5 mM GSH, CDNB varied
bmGSTu2 [1] = target: T1, bmGSTu2 (Bombyx mori, UniProt A9XI30, N102A)
T1 sequence (A9XI30 1-233 N102A): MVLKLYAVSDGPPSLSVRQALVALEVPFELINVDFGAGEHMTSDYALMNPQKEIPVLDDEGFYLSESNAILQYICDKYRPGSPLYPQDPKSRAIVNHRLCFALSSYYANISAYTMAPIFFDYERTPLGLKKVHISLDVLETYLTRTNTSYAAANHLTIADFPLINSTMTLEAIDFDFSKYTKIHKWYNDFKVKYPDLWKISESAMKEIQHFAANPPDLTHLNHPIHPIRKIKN

bmGSTu2 [2] = target: T2, bmGSTu2 (Bombyx mori, UniProt A9XI30)
T2 sequence (A9XI30 1-233): T1 sequence (A9XI30 1-233 N102A) with A102N

bmGSTu2 [3] = target: T3, bmGSTu2 (Bombyx mori, UniProt A9XI30, P162A)
T3 sequence (A9XI30 1-233 P162A): T1 sequence (A9XI30 1-233 N102A) with A102N, P162A

bmGSTu2 [4] = target: T4, bmGSTu2 (Bombyx mori, UniProt A9XI30, S166A)
T4 sequence (A9XI30 1-233 S166A): T1 sequence (A9XI30 1-233 N102A) with A102N, S166A

Work on O=[N+]([O-])c1ccc(Cl)c([N+](=O)[O-])c1 [CDNB, 1-chloro-2,4-dinitrobenzene] yielded a Km (bmGSTu2 [1]) of 940 µM, a Km (bmGSTu2 [2]) of 280 µM and a Km (bmGSTu2 [3]) of 2100 µM. It also gave a Km (bmGSTu2 [4]) of 720 µM.
